From patent US20230271954A1 (Gossamer Bio Services, Inc., priority 2020, published 2023)

Assays:
DGKα = DGKα (Homo sapiens, UniProt P23743); test: DGKα biochemical assay (ADP-Glo); conditions: read-out: DGK α IC50
Protocol: (§1) Compounds of the present invention were prepared into 10 mM DMSO solution and 10 nL of stock was transferred into 384 plates (Optiplate 384 plate) using Echo550. DMSO was used as high control, and ATP substrate buffer was used as a low control. A 1× enzyme assay buffer was prepared (Hepes, pH 7.0 25 mM, BSA 0.05%, Triton-X100 0.002%, CaCl2) 1 μM, MgCl2 10 mM, DTT 2 mM). […] OAG (1-oleoyl-2-acetyl-sn-glycerol, 25 mg/ml, Avanti 8001000) and PS (10 mg/ml, Avanti 840032P) were mixed at the ratio of 1:2. A 1× substrate solution was prepared with 1× assay buffer by 100-fold dilution. The substrate solution was sonicated on ice for 1 min. The pure ATP was added to the substrate solution (DGKα:400 μM). 5 μL of the enzyme solution were added to the 384 well plate, and the plate was spun for 1 min at 1000 rpm and incubated for 30 mins at RT. 5 μL of 1× substrate solution were added to the 384 well plate, the plate was spun and then incubated for 45 mins at RT. 10 μL ADP-Glo […] was added to stop the assay. After 60 mins at RT, 20 μL ADP-Glo Detection buffer was added as the final step. Plate was read after 45 min incubation at RT.
(§2) Data analysis was performed by calculating the […] using following the formula:
(§3) [formula] • High control (Hc): DMSO/DGKα(DGKζ)/Substrate/ATP/ADP-Glo • Low Control (Lc): ATP/ADP-Glo

DGKζ = target: T1, DGKζ (Homo sapiens, UniProt Q13574); test: DGKζ biochemical assay (ADP-Glo); conditions: read-out: DGK ζ IC50
T1 construct: purchased Carna 12-110
T1 sequence (Q13574 1-929 isoform Q13574-4): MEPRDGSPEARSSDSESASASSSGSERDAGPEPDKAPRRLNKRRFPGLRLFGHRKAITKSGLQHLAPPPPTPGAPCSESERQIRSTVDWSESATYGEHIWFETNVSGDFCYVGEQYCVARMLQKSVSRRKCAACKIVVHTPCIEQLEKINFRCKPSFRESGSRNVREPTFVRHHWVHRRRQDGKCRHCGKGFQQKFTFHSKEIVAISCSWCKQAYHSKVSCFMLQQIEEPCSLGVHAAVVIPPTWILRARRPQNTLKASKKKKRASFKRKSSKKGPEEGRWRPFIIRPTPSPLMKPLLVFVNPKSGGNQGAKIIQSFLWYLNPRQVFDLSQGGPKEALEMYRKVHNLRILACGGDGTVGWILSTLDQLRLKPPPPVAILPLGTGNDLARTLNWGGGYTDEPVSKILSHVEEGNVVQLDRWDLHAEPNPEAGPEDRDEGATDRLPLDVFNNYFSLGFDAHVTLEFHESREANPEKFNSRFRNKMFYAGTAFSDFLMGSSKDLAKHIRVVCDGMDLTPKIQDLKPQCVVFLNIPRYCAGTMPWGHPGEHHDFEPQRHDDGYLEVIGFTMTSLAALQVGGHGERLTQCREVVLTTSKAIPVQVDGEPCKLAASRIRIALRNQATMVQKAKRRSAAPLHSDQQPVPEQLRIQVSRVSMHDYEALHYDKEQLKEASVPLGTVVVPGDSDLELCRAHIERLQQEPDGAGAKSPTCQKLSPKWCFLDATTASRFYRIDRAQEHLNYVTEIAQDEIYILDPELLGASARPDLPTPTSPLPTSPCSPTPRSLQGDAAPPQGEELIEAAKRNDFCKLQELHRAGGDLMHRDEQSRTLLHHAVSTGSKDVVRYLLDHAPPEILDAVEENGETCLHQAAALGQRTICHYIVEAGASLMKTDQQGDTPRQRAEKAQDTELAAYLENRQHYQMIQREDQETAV
Protocol: as §1, §2, §3

DGKα, sequence (P23743 whole entry): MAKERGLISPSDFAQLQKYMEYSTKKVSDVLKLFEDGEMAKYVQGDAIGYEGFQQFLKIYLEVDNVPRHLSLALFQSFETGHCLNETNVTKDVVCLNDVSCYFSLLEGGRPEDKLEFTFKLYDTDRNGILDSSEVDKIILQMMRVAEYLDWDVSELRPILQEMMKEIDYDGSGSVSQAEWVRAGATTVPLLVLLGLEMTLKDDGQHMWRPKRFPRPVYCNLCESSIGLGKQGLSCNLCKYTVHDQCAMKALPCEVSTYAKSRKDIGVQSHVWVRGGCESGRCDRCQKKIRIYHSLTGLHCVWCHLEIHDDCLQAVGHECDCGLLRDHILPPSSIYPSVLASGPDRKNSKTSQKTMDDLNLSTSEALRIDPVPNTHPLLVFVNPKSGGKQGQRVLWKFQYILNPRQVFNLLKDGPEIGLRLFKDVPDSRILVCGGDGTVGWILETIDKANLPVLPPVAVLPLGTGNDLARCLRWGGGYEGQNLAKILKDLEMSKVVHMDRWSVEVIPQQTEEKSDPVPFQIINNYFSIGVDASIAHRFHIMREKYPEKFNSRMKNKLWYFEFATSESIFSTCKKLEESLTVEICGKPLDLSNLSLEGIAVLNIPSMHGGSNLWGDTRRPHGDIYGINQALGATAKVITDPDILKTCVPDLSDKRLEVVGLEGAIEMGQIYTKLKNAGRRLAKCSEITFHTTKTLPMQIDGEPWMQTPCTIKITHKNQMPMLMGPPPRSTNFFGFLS

Row | Compound | IC50 (DGKα) [µM] | IC50 (DGKζ) [µM]
1 | Cc1[nH]c2ccccc2c1C(=O)N[C@H]1CC[C@H](N(CC2(C)COC2)c2ccccc2)CC1 [Example 4E, trans-2-Methyl-N-(4-(((3-methyloxetan-3-yl)methyl)(phenyl)amino)cyclohexyl)-1H-indole-3-carboxamide] | ≥ 1 | ≥ 1
2 | O=C(N[C@H]1CC[C@@H](N(CC2CC2)c2ccccc2)CC1)c1c[nH]c2cccnc12 [Example 4F, cis-N-(4-((Cyclopropylmethyl)(phenyl)amino)cyclohexyl)-1H-pyrrolo[3,2-b]pyridine-3-carboxamide] | ≥ 1 | ≥ 1
3 | O=C(N[C@H]1CC[C@@H](N(CC2CC2)c2ccccc2)CC1)c1cnn2cccnc12 [Example 4G, cis-N-(4-((Cyclopropylmethyl)(phenyl)amino)cyclohexyl) pyrazolo[1,5-a]pyrimidine-3-carboxamide] | ≥ 1 | ≥ 1
4 | Cn1c(=O)cc(N(C)[C@H]2CC[C@@H](N(CC3CC3)c3ccc(Cl)cc3)CC2)c2nc(C#N)ccc21 [Example 7, cis-8-((4-((4-chlorophenyl)(cyclopropylmethyl)amino)cyclohexyl)(methyl)amino)-5-methyl-6-oxo-5,6-dihydro-1,5-naphthyridine-2-carbonitrile] | 0.01 to 0.1 | ≥ 1
5 | Cn1c(=O)c(C#N)c(N(C)[C@H]2CC[C@@H](N(CC3CC3)c3ccc(Cl)cc3)CC2)c2ncccc21 [Example 8, cis-4-((4-((4-chlorophenyl)(cyclopropylmethyl)amino)cyclohexyl)(methyl)amino)-1-methyl-2-oxo-1,2-dihydro-1,5-naphthyridine-3-carbonitrile] | 0.01 to 0.1 | ≥ 1
6 | COc1cc(F)ccc1N(CC1CC1)[C@H]1CC[C@@H](N(C)c2c(C#N)c(=O)n(C)c3cccnc23)CC1 [Example 9, cis-4-((4-((cyclopropylmethyl)(4-fluoro-2-methoxyphenyl)amino)cyclohexyl)(methyl)amino)-1-methyl-2-oxo-1,2-dihydro-1,5-naphthyridine-3-carbonitrile] | ≥ 1 | ≥ 1
7 | COc1cccc(N(CC2CC2)[C@H]2CC[C@@H](N(C)c3cc(=O)n(C)c4ccc(C#N)nc34)CC2)c1 [Example 12, cis-8-((4-((cyclopropylmethyl)(3-methoxyphenyl)amino)cyclohexyl)(methyl)amino)-5-methyl-6-oxo-5,6-dihydro-1,5-naphthyridine-2-carbonitrile] | 0.1 to 1 | ≥ 1
8 | COc1cccc(N(CC2CC2)[C@H]2CC[C@H](N(C)c3c(C#N)c(=O)n(C)c4cccnc34)CC2)c1 [Example 13, trans-4-((4-((cyclopropylmethyl)(3-methoxyphenyl)amino)cyclohexyl)(methyl)amino)-1-methyl-2-oxo-1,2-dihydro-1,5-naphthyridine-3-carbonitrile] | 0.01 to 0.1 | ≥ 1
9 | COc1cccc(N(CC2CC2)[C@H]2CC[C@H](N(C)c3cc(=O)n(C)c4ccc(C#N)nc34)CC2)c1 [Example 14, trans-8-((4-((cyclopropylmethyl)(3-methoxyphenyl)amino)cyclohexyl)(methyl)amino)-5-methyl-6-oxo-5,6-dihydro-1,5-naphthyridine-2-carbonitrile] | ≥ 1 | ≥ 1
10 | COc1cccc(N(CC2CC2)[C@H]2CC[C@@H](N(C)c3c(C#N)c(=O)n(C)c4cccnc34)CC2)c1 [Example 15, cis-4-((4-((cyclopropylmethyl)(3-methoxyphenyl)amino)cyclohexyl)(methyl)amino)-1-methyl-2-oxo-1,2-dihydro-1,5-naphthyridine-3-carbonitrile] | 0.1 to 1 | ≥ 1

Results, then the compound that gave them:

Row | IC50 (DGKα) [µM] | IC50 (DGKζ) [µM] | Compound
11 | 0.1 to 1 | ≥ 1 | Cn1c(=O)c(C#N)c(N(C)[C@H]2CC[C@@H](N(c3ccc(F)cc3F)C3CC3)CC2)c2nc(Cl)ccc21 [Example 5, cis-6-chloro-4-((-4-(cyclopropyl(2,4-difluorophenyl)amino)cyclohexyl)(methyl)amino)-1-methyl-2-oxo-1,2-dihydro-1,5-naphthyridine-3-carbonitrile]
12 | 0.01 to 0.1 | ≥ 1 | Cn1c(=O)c(C#N)c(N(C)[C@H]2CC[C@@H](N(CC3CC3)c3ccc(Cl)cc3)CC2)c2nc(Cl)ccc21 [Example 6, cis-6-chloro-4-((4-((4-chlorophenyl) (cyclopropylmethyl)amino)cyclohexyl)(methyl)amino)-1-methyl-2-oxo-1,2-dihydro-1,5-naphthyridine-3-carbonitrile]
13 | < 0.01 | 0.1 to 1 | Cn1c(=O)c(C#N)c(N(C)[C@H]2CC[C@@H](N(c3ccc(F)cc3)C3CCC3)CC2)c2nc(Cl)ccc21 [Example 10, cis-6-chloro-4-((4-(cyclobutyl(4-fluorophenyl)amino)cyclohexyl)(methyl)amino)-1-methyl-2-oxo-1,2-dihydro-1,5-naphthyridine-3-carbonitrile]
14 | 0.01 to 0.1 | 0.1 to 1 | COc1cccc(N(CC2CC2)[C@H]2CC[C@@H](N(C)c3c(C#N)c(=O)n(C)c4ccc(Cl)nc34)CC2)c1 [Example 11, cis-6-chloro-4-((4-((cyclopropylmethyl)(3-methoxyphenyl)amino)cyclohexyl)(methyl)amino)-1-methyl-2-oxo-1,2-dihydro-1,5-naphthyridine-3-carbonitrile]
15 | < 0.01 | 0.1 to 1 | Cn1c(=O)c(C#N)c(N(C)[C@H]2CC[C@@H](N(c3ccc(F)cc3)C3CCC3)CC2)c2nc(C#N)ccc21 [Example 16]
16 | ≥ 1 | ≥ 1 | COc1cc(F)ccc1N(C1CCC1)[C@H]1CC[C@@H](N(C)c2c(C#N)c(=O)n(C)c3ccc(Cl)nc23)CC1 [Example 17, cis-6-chloro-4-((4-(cyclobutyl(4-fluoro-2-methoxyphenyl)amino)cyclohexyl)(methyl)amino)-1-methyl-2-oxo-1,2-dihydro-1,5-naphthyridine-3-carbonitrile]
17 | 0.1 to 1 | 0.1 to 1 | COc1cc(F)ccc1N(C1CCC1)[C@H]1CC[C@@H](N(C)c2c(C#N)c(=O)n(C)c3ccc(C#N)nc23)CC1 [Example 18, cis-8-((4-(cyclobutyl(4-fluoro-2-methoxyphenyl)amino)cyclohexyl)(methyl)amino)-5-methyl-6-oxo-5,6-dihydro-1,5-naphthyridine-2,7-dicarbonitrile]
18 | 0.1 to 1 | 0.1 to 1 | Cn1c(=O)c(C#N)c(N(C)[C@H]2CC[C@H](N(c3ccc(F)cc3)C3CCC3)CC2)c2nc(C#N)ccc21 [Example 19]
19 | 0.01 to 0.1 | ≥ 1 | Cn1c(=O)c(C#N)c(N(C)[C@H]2CC[C@H](N(c3ccc(F)cc3)C3CCC3)CC2)c2nc(Cl)ccc21 [Example 20, trans-6-chloro-4-((4-(cyclobutyl(4-fluorophenyl)amino)cyclohexyl)(methyl)amino)-1-methyl-2-oxo-1,2-dihydro-1,5-naphthyridine-3-carbonitrile]
20 | 0.01 to 0.1 | ≥ 1 | COc1cccc(N(CC2CC2)[C@H]2CC[C@H](N(C)c3c(C#N)c(=O)n(C)c4ccc(Cl)nc34)CC2)c1 [Example 21, trans-6-chloro-4-((4-((cyclopropylmethyl)(3-methoxyphenyl)amino)cyclohexyl)(methyl)amino)-1-methyl-2-oxo-1,2-dihydro-1,5-naphthyridine-3-carbonitrile]
